Test results from ChEMBL document CHEMBL3046894, “Synthesis and Herbicidal Activity of Pyrimidinyl Salicylic and Thiosalicylic Acids” (J Pestic Sci, 1996).
Active and inactive are the calls of the source. The rule behind the calls is not given here.

Columns and labels:
Amaranthus retroflexus [1] = assay: Post-emergence herbicidal activity against Amaranthus retroflexus assessed as growth inhibition at 25 g a.i/10 a applied 11 days after germination as foliar spray; format: functional, organism-based
Glycine max [2] = assay: Pre-emergence phytotoxicity against Glycine max (soybean) assessed as mortality at 1.6 g a.i/10 a; format: organism-based; conditions: in vivo, other
Echinochloa crus-galli [3] = assay: Post-emergence herbicidal activity against Echinochloa crus-galli (barnyard grass) assessed as growth inhibition at 25 g a.i/10 a applied 11 days after germination as foliar spray; format: functional, organism-based
Echinochloa crus-galli [4] = assay: Pre-emergence herbicidal activity against Echinochloa crus-galli (barnyard grass) assessed as growth inhibition at 25 g a.i/10 a; format: functional, organism-based
Ipomoea lacunosa = assay: Pre-emergence herbicidal activity against Ipomoea lacunosa assessed as mortality at 1.6 g a.i/10 a; format: functional; conditions: Ipomoea lacunosa, pre-emergence
Zea mays [5] = assay: Post-emergence phytotoxicity against Zea mays (maize) assessed as mortality at 1.6 g a.i/10 a applied 11 days after germination as foliar spray; format: organism-based; conditions: in vivo, other, 264 h
Persicaria nodosa [6] = assay: Post-emergence herbicidal activity against Persicaria nodosa assessed as growth inhibition at 25 g a.i/10 a applied 11 days after germination as foliar spray; format: functional, organism-based
Gossypium hirsutum [7] = assay: Pre-emergence phytotoxicity against Gossypium hirsutum (cotton) assessed as mortality at 6.3 g a.i/10 a; format: organism-based; conditions: in vivo, other
Abutilon theophrasti [8] = assay: Post-emergence herbicidal activity against Abutilon theophrasti (velvetleaf) assessed as mortality at 6.3 g a.i/10 a applied 11 days after germination as foliar spray; format: functional; conditions: 264 h
Cyperus iria [9] = assay: Post-emergence herbicidal activity against Cyperus iria assessed as growth inhibition at 25 g a.i/10 a applied 11 days after germination as foliar spray; format: functional, organism-based
Xanthium strumarium = assay: Pre-emergence herbicidal activity against Xanthium strumarium (cocklebur) assessed as mortality at 1.6 g a.i/10 a; format: functional; conditions: Xanthium strumarium, pre-emergence
Abutilon theophrasti [10] = assay: Post-emergence herbicidal activity against Abutilon theophrasti (velvetleaf) assessed as mortality at 1.6 g a.i/10 a applied 11 days after germination as foliar spray; format: functional; conditions: 264 h
Persicaria nodosa [11] = assay: Pre-emergence herbicidal activity against Persicaria nodosa assessed as growth inhibition at 25 g a.i/10 a; format: functional, organism-based
Chenopodium album [12] = assay: Post-emergence herbicidal activity against Chenopodium album assessed as growth inhibition at 25 g a.i/10 a applied 11 days after germination as foliar spray; format: functional, organism-based
Chenopodium album [13] = assay: Pre-emergence herbicidal activity against Chenopodium album assessed as growth inhibition at 25 g a.i/10 a; format: functional, organism-based
Gossypium hirsutum [14] = assay: Post-emergence phytotoxicity against Gossypium hirsutum (cotton) assessed as mortality at 1.6 g a.i/10 a applied 11 days after germination as foliar spray; format: organism-based; conditions: in vivo, other, 264 h
Zea mays [15] = assay: Pre-emergence phytotoxicity against Zea mays (maize) assessed as mortality at 6.3 g a.i/10 a; format: organism-based; conditions: in vivo, other
Gossypium hirsutum [16] = assay: Pre-emergence phytotoxicity against Gossypium hirsutum (cotton) assessed as mortality at 1.6 g a.i/10 a; format: organism-based; conditions: in vivo, other
Cyperus iria [17] = assay: Pre-emergence herbicidal activity against Cyperus iria assessed as growth inhibition at 25 g a.i/10 a; format: functional, organism-based
Zea mays [18] = assay: Pre-emergence phytotoxicity against Zea mays (maize) assessed as mortality at 1.6 g a.i/10 a; format: organism-based; conditions: in vivo, other
Digitaria sanguinalis [19] = assay: Post-emergence herbicidal activity against Digitaria sanguinalis (hairy crabgrass) assessed as growth inhibition at 25 g a.i/10 a applied 11 days after germination as foliar spray; format: functional, organism-based
Glycine max [20] = assay: Pre-emergence phytotoxicity against Glycine max (soybean) assessed as mortality at 6.3 g a.i/10 a; format: organism-based; conditions: in vivo, other
Digitaria sanguinalis [21] = assay: Pre-emergence herbicidal activity against Digitaria sanguinalis (hairy crabgrass) assessed as growth inhibition at 25 g a.i/10 a; format: functional, organism-based
[22] = Post-emergence phytotoxicity against Glycine max (soybean) assessed as mortality at 1.6 g a.i/10 a applied 11 days after germination as foliar spray; format: organism-based; conditions: in vivo, 1.6 g a.i/10 a
Gossypium hirsutum [23] = assay: Post-emergence phytotoxicity against Gossypium hirsutum (cotton) assessed as mortality at 6.3 g a.i/10 a applied 11 days after germination as foliar spray; format: organism-based; conditions: in vivo, other, 264 h
Amaranthus retroflexus [24] = assay: Pre-emergence herbicidal activity against Amaranthus retroflexus assessed as growth inhibition at 25 g a.i/10 a; format: functional, organism-based
Zea mays [25] = assay: Post-emergence phytotoxicity against Zea mays (maize) assessed as mortality at 6.3 g a.i/10 a applied 11 days after germination as foliar spray; format: organism-based; conditions: in vivo, other, 264 h

SMILES | growth inhibition (GI) (Amaranthus retroflexus [1]) | growth inhibition (GI) (Echinochloa crus-galli [3]) | growth inhibition (GI) (Echinochloa crus-galli [4]) | growth inhibition (GI) (Persicaria nodosa [6]) | growth inhibition (GI) (Cyperus iria [9]) | growth inhibition (GI) (Persicaria nodosa [11]) | growth inhibition (GI) (Chenopodium album [12]) | growth inhibition (GI) (Chenopodium album [13]) | growth inhibition (GI) (Cyperus iria [17]) | growth inhibition (GI) (Digitaria sanguinalis [19]) | growth inhibition (GI) (Digitaria sanguinalis [21]) | growth inhibition (GI) (Amaranthus retroflexus [24]) | also measured
COc1cc(OC)nc(Oc2cccc(OC(F)F)c2C(=O)O)n1 | Active | Active | Active | Active | Active | Active | Active | Active | Active | Active | Active | Active | Activity (Glycine max [2]): Toxic; mortality at 16 g/ha (Ipomoea lacunosa): < 5%; Activity (Zea mays [5]): Toxic; Activity (Gossypium hirsutum [7]): Non-toxic; mortality at 63 g/ha (Abutilon theophrasti [8]): > 90%; mortality at 16 g/ha (Xanthium strumarium): < 5%; mortality at 16 g/ha (Abutilon theophrasti [10]): > 90%; Activity (Gossypium hirsutum [14]): Toxic; Activity (Zea mays [15]): Toxic; Activity (Gossypium hirsutum [16]): Non-toxic; Activity (Zea mays [18]): Non-toxic; Activity (Glycine max [20]): Toxic; mortality at 264 h [22]: > 90%; Activity (Gossypium hirsutum [23]): Toxic; Activity (Zea mays [25]): Toxic
COc1ccc(Oc2nc(OC)cc(OC)n2)c(C(=O)O)c1 | Active | Active | Active | Active | Active | Active | inactive | Active | Active | Active | Active | Active | –
CCOCCOc1cccc(Oc2nc(OC)cc(OC)n2)c1C(=O)O | Active | Active | Active | Active | Active | Active | Active | Active | Active | Active | Active | Active | –
COc1cc(OC)nc(Oc2cccc(-n3cccc3)c2C(=O)O)n1 | Active | Active | Active | Active | Active | Active | Active | Active | Active | Active | Active | Active | –
CCSc1cccc(Oc2nc(OC)cc(OC)n2)c1C(=O)O | Active | Active | inactive | Active | Active | inactive | Active | inactive | inactive | inactive | inactive | Active | –
COc1cc(OC)nc(Oc2ccc(Br)cc2C(=O)O)n1 | inactive | inactive | inactive | inactive | inactive | inactive | inactive | inactive | inactive | inactive | inactive | inactive | –
